System: ficin
Conditions: Wo 25, HEPES pH 7.1, 30° C.
Experimental: Reverse micelles assay of ISO-AOT 50 mM (AOT: twin aerosol (2-ethylhexylsodiumsulfosuccinate in isooctane (ISO)); Wo (H2O/AOT)=25
The assays were carried out in the reverse-micelles assay dispersed in organic solvent, described by Walde et al. in Eur. J. Biochem., 1988, 173:401-409, and already reported in the literature in kinetic studies of the inhibition of trypsin with natural and synthetic inhibitors. […]
The enzyme assay on reverse-micelle has been already described in the literature for the enzyme trypsin and was adapted to different enzymes. […] To this solution was added an appropriate volume of substrate CBZ (dissolved in acetonitrile/H2O, 80:20 (v/v) at a concentration of 15 mM) and following further agitation (the solution returned to being transparent), the change in absorbance was measured (Dabs) at 340 nm with a Cary 219 spectrophotometer.
The experimental data obtained are represented graphically in the form of Dixon-plot (described for example in: “Quantitative Problems in Biochemistry”, E A. Dawes, 5th ed. 1972 Baltimore, The Williams and Wilkins Company), in the FIGS. 1, 2 and 3.

Work on `CCCCOCCOCCOCc1cc2c(cc1CCC)OCO2` [PBO, 5-[[2-(2-Butoxyethoxy)ethoxy]methyl]-6-propyl-1,3-benzodioxole] yielded an IC50 (read-out: IC50 of PBO on ficin, evaluated from Dixon plot) of 800 µM and a Ki (read-out: inhibition constant (KI) of PBO on the enzyme ficin, Dixon plot, substrate CBZ 1.5×10^−4 M and 6×10^−5 M) of 450 µM.
